Patent publication US11666642B2, “PDE5 compositions and methods for immunotherapy” (Obsidian Therapeutics, Inc., priority 2017, dated 2023)

Test system: hPDE5 truncation mutants (R732L) fused to AcGFP in HCT-116 cells
Test: Expression of hPDE5 truncation mutants, GFP MFI by FACS
Type: cell-based, human
Description: Several truncation mutants of the full length hPDE5 were generated to identify regions beyond the […] catalytic domain that may serve as a template for identifying DDs. The truncation mutants tested included amino acids 535-860 of hPDE5 WT (E535-Q860), amino acids 535 to 836 of hPDE5 WT (E535-S836), amino acids 590 to 860 of hPDE5 WT (M590-Q860), amino acids 590 to 836 of hPDE5 WT (M590-S836), wherein the amino acids positions are with respect to SEQ ID NO. 1. The DD mutation R732L was incorporated into all truncation mutants and its destabilizing potential was compared to E535-Q860 wildtype by fusing the mutants to an SG linker and reporter, AcGFP. […] As a control, parental untransduced cells and cells expressing OT-hPDE5N-001, or OT-hPDE5N-028 were also included in the analysis. The mean fluorescence intensity (MFI) of GFP was analyzed by FACS. […] The destabilizing mutation coefficient was calculated as the fold change in GFP intensity in the hPDE5 mutant constructs compared to the hPDE5 wildtype construct (OT-hPDE5N-019) in the absence of the ligand. Destabilizing mutation coefficients less than 1 are desirable. Stabilization ratios greater than 1 are desired in DDs.

Substance: OT-hPDE5N-020: construct consisting of E535-Q860 amino acids of hPDE5 with the R732L mutant, SG linker, AcGFP; single mutant construct
- ligand dependent stabilization (stabilization ratio) of truncation mutants (10 μM Sildenafil or Vardenafil, 48 hours, HCT-116): strongest ligand dependent stabilization with both ligands
- Sildenafil Stabilization ratio (10 μM Sildenafil vs DMSO, 48 hours): 6.02
- Vardenafil Stabilization ratio (10 μM Vardenafil vs DMSO, 48 hours): 10.08
- MFI Sildenafil (HCT-116, 10 μM Sildenafil, 48 hours): 55636
- MFI Vardenafil (HCT-116, 10 μM Vardenafil, 48 hours): 93216
- MFI DMSO (HCT-116, DMSO, 48 hours): 9248
- destabilizing mutation coefficient (vs hPDE5 wildtype construct in absence of ligand): 0.14
